Values quoted from earlier work as cited in patent publication US20220142981A1, “APREMILAST LIPOPHILIC TOPICAL PHARMACEUTICAL COMPOSITIONS” (APRAMITHA INNOVATIONS PRIVATE LIMITED, priority 2019, published 2022).

Compound: CCOc1cc([C@@H](CS(C)(=O)=O)N2C(=O)c3cccc(NC(C)=O)c3C2=O)ccc1OC [Apremilast, N-[2-[(lS)-l-(3-ethoxy-4-methoxyphenyl)-2-(methylsulfonyl)ethyl]-l,3-dioxo-2,3-dihydro-lH-isoindol-4-yl]acetamide]
- solubility in polar solvents (polar solvents): minimal solubility
- solubility in water (water): insolubility
